# Data reported in paper PMC3929365, “Benzimidazoisoquinolines: A New Class of Rapidly Metabolized Aryl Hydrocarbon Receptor (AhR) Ligands that Induce AhR-Dependent Tregs and Prevent Murine Graft-Versus-Host Disease” (PLoS ONE, 2014).
# Where “and” joins values, the source holds several entries; their conditions need not be identical. Equal entries are not always repeated.
# Experiments:
# AhR [1] = test: AhR-regulated (XRE) luciferase reporter gene assay in Hepa-1 cells; assay type: cell-based, mouse; conditions: 10 nM, 12 h, Hepa1 cells, XRE-luciferase reporter
# Procedure: Figure 1 10-Cl-BBQ is a potent AhR ligand. A) Structure of 10-Cl-BBQ. […] C) Hepa-1 cells expressing endogenous AhR were transfected with an AhR-regulated luciferase reporter gene (xenobiotic responsive element (XRE)-MMTVpromoter-Luc) and the reporter gene activity was measured after 12 h of treatment with 1 nM TCDD or the indicated concentrations of 10-Cl-BBQ. D) Alteration in proteolytic pattern of AhR by 10-Cl-BBQ. Whole cell lysate (45 µg of protein) from mouse hepatoma Hepa1c1c7 cells was incubated with 100 nM 10-Cl-BBQ or 0.1% DMSO for 1 h at RT and proteolyzed by 1 µg/ml subtilisin for 1, 2, 4, and 8 min at RT. Proteolytic cleavage products of AhR were analyzed by immunoblot. E) Electrophoretic mobility shift assay showing the ligand-stimulated binding of AhR to XRE. Whole cell lysate (18 µg of protein) from mouse hepatoma Hepa1c1c7 cells was incubated with 10 nM 10-Cl-BBQ or 0.1% DMSO for 2 h at room temperature and ^32P-labeled oligonucleotide containing XRE for 20 min at room temperature. The samples were electrophoresed on a native polyacrylamide gel and the signal was visualized by Phosphor Imager. Unlabeled competitor XRE or antibody (Ab) against AhR or Arnt was co-incubated with ^32P-labeled oligonucleotide.
# The mean luciferase activity is shown with SEM. […] 3-MC binding to AhR.
# AhR [2] = tested on: AhR
# Procedure: The AhR reporter gene assay was performed as previously described (20–22).
# B) Hepa1 cells expressing endogenous AhR were transfected with a XRE-luciferase reporter gene. […] The mean luciferase activity is shown with SEM. C) Dose response curves for the competitive inhibition of [^3H] 3-MC binding to AhR.
# 3-methylcholanthrene (3-MC) to AhR (Fig. 5C).
# donor CD4+ T cells = test: AhR-Treg phenotype of alloactivated donor CD4+ T cells 48 h after initiating the GVH response; assay type: in vivo, B6D2F1 host mice; conditions: 10 mg/kg i.p. day 0 and day 1, analysed day 2, vs vehicle
# Procedure: Splenocytes and lymphocytes were harvested from C57Bl/6 mice. In some experiments, T cells were purified by negative selection using a Pan-T kit (Miltenyi Biotec) and stained with 2 µM carboxyfluorescein succinimidyl ester (CFSE) (Life Technologies). At least 2×10^7 purified T cells or approximately 1×10^8 pooled splenocytes and lymphocytes were injected i.v. into B6D2F1 host mice to initiate the GVH response. GVHD pathology was assessed on a scale of 0 to 3 (0 = normal, 1 = moderate morbidity, 2 = severe morbidity, 3 = death) according to the following five criteria: weight-loss, posture, activity, fur texture and death and reported as a Clinical GVHD Score.
# Host mice were treated daily with vehicle, 10-Cl-BBQ or BBQ analogues by i.p. injection. The vehicle consisted of a mixture of 6.7% anisole and peanut oil. Mice treated with a single i.p. dose of 15 µg TCDD/kg body weight in the same vehicle were used as positive controls.
# Antibodies to CTLA-4, Foxp3, ICOS, CD62L, CD25, CD19, CD44) and a fixable viability dye were purchased from eBiosciences. Additional antibody reagents included CD4 and CD8 (Life Technologies); H-2D^d (Biolegend) and CD45RB (PharMingen). After surface staining, the cells were fixed and permeabilized with Cytofix/cytoperm (BD Biosciences) for intracellular CTLA-4 stain. The flow cytometry data were acquired on an FC500 instrument (Beckman Coulter) and the data were analyzed using WinList 7.0 (Verity Software House). Fluorescence minus one (FMO) controls were used for setting histogram gates during the analysis.
# Figure 3 10-Cl-BBQ induces an AhR-dependent Treg phenotype 48 h after initiating the GVH response. On day 0, B6D2F1 host mice in groups of 5 were injected with CFSE-labeled C57Bl/6 T cells and given 15 mg/kg 10-Cl-BBQ, 15 µg/kg TCDD or vehicle by i.p. injection. At 24 h, an additional dose of 7 mg/kg 10-Cl-BBQ or vehicle was given. […] Treatment mean ± SEM is shown in the quadrant of interest. […] C) AhR-dependent induction of the donor Treg phenotype by 10-Cl-BBQ. On day 0, B6D2F1 host mice in groups of 5 were injected with donor T cells obtained from AhR^+/+ or AhR^−/− C57Bl/6 mice. Host mice were treated with 2 mg/kg10-Cl-BBQ or vehicle immediately following donor cell transfer and again at 24 hr. […] D) Dose-dependent induction of Treg phenotype by 10-Cl-BBQ. On day 0, B6D2F1 host mice in groups of 3–5 were injected with C57Bl/6 T cells. Mice were immediately treated with 0, 0.4, 2 or 10 mg/kg 10-Cl-BBQ and again on day 1. On day 2, expression of markers associated with the AhR-Treg phenotype increased as the dose of 10-Cl-BBQ increased. E) In the same mice as in D, lymph nodes were harvested and analyzed for expression of genes that were previously shown to increase under the same GVH conditions with TCDD treatment (13). […] Changes in gene expression were calculated relative to the β-actin gene, and the fold-induction was calculated by the ΔΔCt method using the vehicle-treated samples as a control. * = p<0.05 relative to vehicle treatment. […]
# AhR [3] = tested on: AhR; parameters: method as in PMID 18755850; conditions: MCF-7 cells and human macrophages; cited from earlier work
# CaMKK = tested on: CaMKK; parameters: method as in PMID 11867640; conditions: cited from earlier work
IC50 (AhR [2]),Compound,activation of AhR (AhR-regulated reporter gene activity) (AhR [1]),"percentage of alloresponsive donor CD4+ T cells expressing CD25 with AhR-Treg markers ICOS, CD62Llow and CTLA-4 (donor CD4+ T cells)",concentration at which AhR activation occurred (AhR [3]) [µM],concentration known to fully inhibit CaMKK (CaMKK) [µM]
13.7 nM,"O=c1c2cccc3cccc(c32)c2nc3ccccc3n12 [analogue 1, 7H-Benzimidazo[2,1-a]benzo[de]isoquinolin-7-one]",13 fold,significantly increased,,
45200 nM and 45000 nM,"O=C(O)c1ccc2c3c1cccc3c(=O)n1c3ccccc3nc21 [analogue 5, 7-Oxo-7H-benzimidazo[2,1-a]benzo[de]isoquinoline-3-carboxylic acid, reference compound]",did not induce reporter activity,,25,25

# The remaining lines, values behind:
Compound,IC50 (AhR [2]),activation of AhR (AhR-regulated reporter gene activity) (AhR [1]),"percentage of alloresponsive donor CD4+ T cells expressing CD25 with AhR-Treg markers ICOS, CD62Llow and CTLA-4 (donor CD4+ T cells)",concentration at which AhR activation occurred (AhR [3]) [µM],concentration known to fully inhibit CaMKK (CaMKK) [µM]
"11-Chloro-8H-benzimidazo[2,1-a]phenanthro[3,4,5-defg]isoquinolin-8-one [analogue 3]",,2 fold,,,
"Clc1cc2c(cc1Cl)Oc1cc(Cl)c(Cl)cc1O2 [TCDD, 2,3,7,8-tetrachlorodibenzo-p-dioxin, reference compound]",4.7 nM,,,,
"NN1C(=O)c2ccc3c(=O)n4c5ccc(Cl)cc5nc4c4ccc(c2c34)C1=O [analogue 2, 2-Amino-10-chlorobenzimidazo[2,1-b]benzo[lmn][3,8]phenanthroline-1,3,6(2H)-trione]",,did not induce reporter activity,,,
"O=c1c2ccc(Cl)c3cccc(c32)c2nc3cc(Cl)ccc3n12 [analogue 4, 4,11-Dichloro-7H-benzimidazo[2,1-a]benzo[de]isoquinolin-7-one]",5.2 nM,19 fold,significantly increased,,
